Experimental data reported in US9738684B2, “N-terminally modified linear and branched polyamine conjugated peptidomimetics as antimicrobials agents” (COUNCIL OF SCIENTIFIC & INDUSTRIAL RESEARCH, priority 2015, dated 2017).
≈ marks a conversion by molar mass, not a printed value.

Columns and labels:
S. aureus (ATCC 33591) = assay: Resistance development study, serial passage at sub MIC; format: cell-based, Staphylococcus aureus; conditions: 17 serial passages at sub MIC
Method: FIG. 5: Illustration of resistance development study in S. aureus (ATCC 33591) after 17 serial passages with sub MIC of 1c/1d or antibiotic treatment. The fold change in MIC is the ratio of the MIC after 17 passages relative to that MIC observed before first passage.
To determine potential of active peptidomimetics against resistance development, in vitro serial passage method at sub inhibitory concentration was done. Briefly, bacterial suspension (100 μL) from duplicate wells at the concentration of sub-MIC was used to inoculate fresh culture. The culture was grown to obtain approximately 10^5 CFU/mL for the next experiment. These bacterial suspensions were then incubated with desired concentration of antibacterial agents for 18 h to determine new MIC. The same sub culturing protocol was used for next 16 passages and MIC was determined using OD630 nm as described previously in the text [Chem. Biol., 20:1286-1295, 2013.]

Staphylococcus species = assay: Antibacterial activity; format: cell-based
Method: (§1) Following bacterial strains were used in this study: S. aureus (ATCC 29213), methicillin resistant S. aureus (ATCC 33591), Staphylococcus epidermidis (ATCC 12228), methicillin resistant Staphylococcus epidermidis(ATCC 51625), Enterococcus faecalis (ATCC 7080), Escherichia coli (ATCC 11775), and Acinetobacter baumannii (ATCC 19606). Antibacterial activity was evaluated using a modified serial broth dilution method in accordance with Clinical Laboratory Standard Institute guidelines [Methods for dilution antimicrobial susceptibility tests for bacteria that grow aerobically-7th ed. Approved standard M7-A7. Clinical and Laboratory Standards Institute, Wayne, Pa., Biochim. Biophys. Acta 1798:1864-1875, 2010.]. Briefly, the inoculums were prepared from mid-log phase bacterial cultures. Peptidomimetics were incubated with bacterial suspension in Muller Hinton broth media (10^5 CFU/mL) in 96 well microtitre plate. The plates were incubated overnight with agitation (200 rpm) at 37° C. After 18 h, absorbance was measured at 630 nm. Cultures without test peptidomimetics were used as positive control. Un-inoculated Mueller Hinton Broth (MHB) was used as negative control. Tests were carried out in duplicate on at least three different days. […] For comparison standard peptide antibiotics vancomycin (VAN) and polymyxin B (PMB) were also assayed under identical conditions (Table 2). […] Further, antibacterial activity of active peptidomimetics 1c and 1d were also evaluated against MRSA in presence of 25% v/v human serum as well as bovine serum.

[1] = system: Gram-negative bacterial strains; assay: Antibacterial activity; format: cell-based
Method: as §1

[2] = system: MRSA (ATCC 33591) biofilm; assay: 24 h preformed mature biofilm (alamar blue, crystal violet); format: cell-based, Staphylococcus aureus; conditions: Staphylococcus aureus, 24 h, read-out: viable cells in 24 h pre-formed mature biofilm (alamar blue)
Method: To evaluate potential of designed active peptidomimetics against MRSA biofilms a methodology as used previously was employed with minor modifications [Antimicrob. Agents Chemother., 57:2726-2737, 2013]. Briefly, freshly inoculated MRSA (ATCC 33591) was grown in biofilm growth media (TSB supplemented with 0.5% w/v NaCl and 0.25% w/v glucose) overnight. Next day, the culture was diluted in fresh biofilm growth media to 10^5 CFU/mL. 200 μl of diluted culture was dispensed in wells of a 96-well polystyrene plate for biofilm formation. […] Biofilm cultures were re-incubated at 37° C. for 24 h. After removal of medium, the biofilms were further washed twice with sterile NaCl/Pi buffer and assessed for metabolic activity (alamar blue assay) and biomass quantification (Crystal violet assay).

MRSA (ATCC 33591) = assay: Planktonic MIC in biofilm media (MICb); format: cell-based, Staphylococcus aureus; conditions: TSB with 0.5% NaCl and 0.25% glucose
[3] = system: MRSA (ATCC 33591) biofilm; assay: Confocal laser scanning microscopy of biofilm, thickness by z-stacking; format: cell-based, Staphylococcus aureus; conditions: for confocal observation of mature biofilm: 24 h preformed biofilm
Text: For visualization of biofilm and validation of AB and CV assay we performed confocal microscopy. For this biofilm formation was induced on glass cover slips in a 6-well plate. The biofilm on cover slips were washed twice with sterile NaCl/Pi buffer and stained with a Live/Dead kit reagent (Invitrogen, Molecular Probes, Eugene, Oreg., USA) following the manufacturer's instructions. This stain contains DNA binding dyes SYTO 9 (green fluorescent) and propidium iodide (PI; red fluorescent). When used alone, SYTO 9 stains all bacteria in a population, those with intact as well as damaged membranes. In contrast, PI penetrates only bacteria with damaged membranes, causing a reduction in the SYTO 9 stain (green fluorescence). The biofilms were examined with an Olympus flow view FV1000 (confocal laser scanning microscope, CLSM). The experiment was repeated three times on three different days and representative data is presented here.
We next measured the thickness of biofilm using z-stacking in confocal microscopy. […] At MICb, 1c and 1d prevented formation of biofilm in which very few cells were adhered to substratum with observed average thickness of 3.9±1.1 μm and 3.5±0.6 μm, respectively. Furthermore, at sub-MICb concentration the observed thicknesses were 5.2±0.3 μm and 5.8±0.4 μm (FIG. 7A.b and FIG. 7A.d).

[4] = system: Staphylococcus epidermidis (ATCC 12228); assay: MIC, serial broth dilution; format: cell-based
Method: (§2) The peptidomimetics designed in present invention were evaluated as antibacterial therapeutics against a broad range of bacterial strains by broth microdilution method. The antibacterial activity of the peptidomimetics was reported in terms of the minimum inhibitory concentrations (MIC).
as §1

[5] = system: methicillin resistant Staphylococcus epidermidis (ATCC 51625); assay: MIC, serial broth dilution; format: cell-based; conditions: Staphylococcus epidermidis, ATCC 51625 / MRSE, 18 h, read-out: MIC MRSE (ATCC 51625)
Method: as §2, §1

[6] = system: Acinetobacter baumannii (ATCC 19606); assay: MIC, serial broth dilution; format: cell-based; conditions: Acinetobacter baumannii, ATCC19606, 18 h, read-out: MIC A. baumannii (ATCC 19606)
Method: as §2, §1

[7] = system: Escherichia coli (ATCC 11775); assay: MIC, serial broth dilution; format: cell-based; conditions: Escherichia coli, ATCC11775, 18 h, read-out: MIC E. coli. (ATCC 11775)
Method: as §2, §1

S. aureus (ATCC 29213) = assay: MIC, serial broth dilution; format: cell-based, Staphylococcus aureus
Method: as §2, §1

[8] = system: methicillin resistant S. aureus (ATCC 33591); assay: MIC, serial broth dilution; format: cell-based, Staphylococcus aureus; conditions: 18 h
Method: as §2, §1

MRSA = assay: Membrane depolarization with DiSC3(5) dye; format: cell-based, Staphylococcus aureus; conditions: up to the highest concentration tested
Method: For determination of membrane depolarizing ability of designed peptidomimetics, a membrane potential sensitive dye DiSC3(5) was used as described previously with minor modifications [Org Biomol. Chem. 10: 8326-8335, 2012; J. Am. Chem. Soc., 132: 18417-18428, 2010.]. Briefly, overnight grown MRSA was sub cultured into MHB for 2-3 h at 37° C. to obtain mid-log phase cultures. The cells were centrifuged at 4000 rpm for 10 min at 25° C., washed, and re-suspended into respiration buffer (5 mM HEPES, 20 mM glucose, pH 7.4) to obtain a diluted suspension of OD600˜0.05. Then DiSC3(5) [0.18 μM in DMSO], was added to 500 μL aliquotes of the re-suspended cells and allowed to stabilize for 1 h. Baseline fluorescence was acquired using a Edinburg F900 spectrofluorometer by excitation at 622 nm and emission at 670 nm in a 1 cm path length cuvette. Bandwidth of 5 nm was employed for excitation and emission. Subsequently, increasing concentrations of test peptidomimetics were added to the stabilized cells and the increase of fluorescence on account of the de-quenching of DiSC3(5) dye was measured after every 2 min to obtain the maximal depolarization. Increase in relative fluorescence unit (RFU) was plotted against increasing concentrations of different peptidomimetics or PMB. […] The increase in fluorescence for lipid tagged peptidomimetics was concentration dependent up to 9.9 μg/mL and henceforth, got saturated resulting into plateau like dose response curves. The experiment was repeated twice on two consecutive days and produced similar results.

[9] = system: Gram-positive bacterial strains; assay: Antibacterial activity; format: cell-based
Method: as §1

[10] = system: human red blood cells (hRBC); assay: Hemolytic activity; format: cell-based; conditions: 250 μg/mL, 1 h at 37° C.
Method: Hemolytic activity of the peptidomimetics was evaluated on human red blood cells (hRBC) as described previously with minor modifications [FEBS J, 273:4040-4054, 2006; Biochim Biophys Acta., 1798:1864-1875, 2010]. Briefly, 100 μL of fresh hRBC suspension 4% v/v in NaCl/Pi (35 mM phosphate buffer, 150 mM NaCl, pH 7.2) was placed in a 96-well plate. After incubation of the peptidomimetics (100 μL) in the hRBC suspension for 1 h at 37° C., the plates were centrifuged and supernatant (100 μL) was transferred to fresh 96-well plate. Absorbance was read at 540 nm using ELISA plate reader (Molecular Devices). Percent hemolysis was calculated using the following formula: % hemolysis=100[(A−A0)/(At−A0)]
Where, A represents absorbance of sample wells at 540 nm. Also A0 and At represents 0% and 100% hemolysis determined in NaCl/Pi and 1% Triton X-100, respectively (Table 2). […] Peptidomimetics 1e and 1f caused 31% and 30% hemolysis at 250 μg/mL. Peptidomimetics 2d, 2e and 2f caused significant hemolysis with 83%, 96% and 88% damage to hRBCs at […] respectively.

[11] = system: Enterococcus faecalis (ATCC 7080); assay: MIC, serial broth dilution; format: cell-based; conditions: MHB, 18 h, 37° C.
Method: as §2, §1

CN[C@H](CC(C)C)C(=O)N[C@H]1C(=O)N[C@@H](CC(N)=O)C(=O)N[C@H]2C(=O)N[C@H]3C(=O)N[C@H](C(=O)N[C@H](C(=O)O)c4cc(O)cc(O)c4-c4cc3ccc4O)[C@H](O)c3ccc(c(Cl)c3)Oc3cc2cc(c3O[C@@H]2O[C@H](CO)[C@@H](O)[C@H](O)[C@H]2O[C@H]2C[C@](C)(N)[C@H](O)[C@H](C)O2)Oc2ccc(cc2Cl)[C@H]1O [VAN, vancomycin, reference compound]
increase in MIC after 17 passages (S. aureus (ATCC 33591)): 4 fold
activity against Staphylococcus species (Staphylococcus species): potent growth inhibition
growth inhibition of Gram-negative bacterial strains [1]: ineffective
viability at 20 µg/mL [2]: 77.7 ± 7%
MICb, planktonic MIC in biofilm media (MRSA (ATCC 33591)): 0.8 µg/mL
confocal observation of mature biofilm ([3]; 10×MICb): little effect
confocal observation of mature biofilm ([3]; 20×MICb): slight decrease in the height of mature biofilm
average thickness of biofilm, biofilm formation ([3]; MICb, control 14.3±1.4 μm): 11.4±2.9 μm
thickness of biofilm, biofilm formation ([3]; sub-MICb, control 14.3±1.4 μm): unable to reduce biofilm thickness
MIC ([4]; Staphylococcus epidermidis, ATCC12228, 18 h, read-out: MIC S. epidermidis (ATCC 12228)): 0.0004 µg/mL (≈ 0.000276 µM)
MIC [5]: 0.0008 µg/mL (≈ 0.000552 µM)
MIC [6]: 0.0568 µg/mL (≈ 0.0392 µM)
MIC [7]: 0.114 µg/mL (≈ 0.0784 µM)
MIC (S. aureus (ATCC 29213); Staphylococcus aureus, ATCC29213, 18 h, read-out: MIC S. aureus (ATCC 29213)): 0.0004 µg/mL (≈ 0.000276 µM)
MIC ([8]; Staphylococcus aureus, ATCC 33591 / MRSA, read-out: MIC MRSA (ATCC 33591)): 0.0008 µg/mL (≈ 0.000552 µM)

NCCCNCCCCNCCCNC(=O)C(Cc1c[nH]c2ccccc12)NC(=O)C(N)Cc1c[nH]c2ccccc12 (stereo not shown) [1a]
change in relative fluorescence unit (RFU), membrane depolarization (MRSA): only minor increase
activity against Gram-positive bacterial strains [9]: moderate activity
% H, percentage hemolysis of human RBCs [10]: 4%
MIC E. facaelis (ATCC 7080) [11]: 0.4545 µg/mL (≈ 0.791 µM)
MIC S. epidermidis (ATCC 12228) ([4]; MHB, 18 h, 37° C.): 113.6 µg/mL (≈ 198 µM)
MIC S. aureus (ATCC 29213) (S. aureus (ATCC 29213); MHB, 18 h, 37° C.): 0.1136 µg/mL (≈ 0.198 µM)
MIC MRSA (ATCC 33591) ([8]; MHB, 37° C.): 227.2 µg/mL (≈ 395 µM)
